Assay results: US20240190880A1 (THE REGENTS OF THE UNIVERSITY OF MICHIGAN, priority 2021, published 2024)

Target: T1, ER (Homo sapiens, UniProt P03372)
T1 construct: host or cells: T47D and MCF7 human breast cancer cells
T1 sequence (P03372 1-595): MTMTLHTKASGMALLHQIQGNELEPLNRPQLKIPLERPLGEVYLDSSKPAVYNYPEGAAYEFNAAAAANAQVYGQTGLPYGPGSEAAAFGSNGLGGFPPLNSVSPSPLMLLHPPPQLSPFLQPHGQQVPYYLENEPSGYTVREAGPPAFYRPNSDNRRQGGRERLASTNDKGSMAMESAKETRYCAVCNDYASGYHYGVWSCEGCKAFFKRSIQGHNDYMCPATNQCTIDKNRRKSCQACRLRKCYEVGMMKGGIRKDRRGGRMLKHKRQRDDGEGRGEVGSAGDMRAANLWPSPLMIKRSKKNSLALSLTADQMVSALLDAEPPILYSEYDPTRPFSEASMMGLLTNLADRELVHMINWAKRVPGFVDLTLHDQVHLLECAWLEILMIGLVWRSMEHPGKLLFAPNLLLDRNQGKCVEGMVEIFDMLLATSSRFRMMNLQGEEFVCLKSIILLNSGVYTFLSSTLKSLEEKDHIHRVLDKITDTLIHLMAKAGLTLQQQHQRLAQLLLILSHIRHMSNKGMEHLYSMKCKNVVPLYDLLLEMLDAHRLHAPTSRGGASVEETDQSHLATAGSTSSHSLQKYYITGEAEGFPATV
Assay: ER degradation activity, in-cell western blot analysis in T47D cells
Format: cell-based
Conditions: 16 hours, Table A does not say which cell line (T47D or MCF7), read-out: Potency (DC50)
How it was run: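 T47D cells cultured in DMEM with 10% FBS, treated with compounds (final 0.5% DMSO) for 16 h. ER level measured by in-cell western with anti-rabbit-680/anti-mouse-800 near-infrared detection. Relative ER percentage calculated against untreated and DMSO-treated wells set as 100%.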

Compound | DC50
C[C@@H]1Cc2c([nH]c3ccccc23)[C@@H](c2cnc(C3=CCC(C(=O)N4CCC(N5Cc6cc7c(cc6C5)C(=O)N(C5CCC(=O)NC5=O)C7=O)CC4)CC3)nc2)N1CC(F)F (stereo partly drawn) [E 315, 6-(1-(4-(5-((1R,3R)-2-(2,2-difluoroethyl)-3-methyl-2,3,4,9-tetrahydro-1H-pyrido[3,4-b]indol-1-yl)pyrimidin-2-yl)cyclohex-3-ene-1-carbonyl)piperidin-4-yl)-2-(2,6-dioxopiperidin-3-yl)-6,7-dihydropyrrolo[3,4-f]isoindole-1,3(2H,5H)-dione] | > 100 nM
C[C@@H]1Cc2cc(O)ccc2[C@@H](c2ccc(N3CCC(C(=O)N4CCC(N5Cc6cc7c(cc6C5)C(=O)N(C5CCC(=O)NC5=O)C7=O)CC4)CC3)cc2)N1CC(F)F (stereo partly drawn) [E 318, 6-(1-(1-(4-((1R,3R)-2-(2,2-difluoroethyl)-6-hydroxy-3-methyl-1,2,3,4-tetrahydroisoquinolin-1-yl)phenyl)piperidine-4-carbonyl)piperidin-4-yl)-2-(2,6-dioxopiperidin-3-yl)-6,7-dihydropyrrolo[3,4-f]isoindole-1,3(2H,5H)-dione] | < 10 nM
C[C@@H]1Cc2cc(O)ccc2[C@@H](c2c(F)cc(N3CCC4(CCN(C(=O)CN5Cc6cc7c(cc6C5)C(=O)N(C5CCC(=O)NC5=O)C7=O)CC4)CC3)cc2F)N1CC(F)F (stereo partly drawn) [E 320, 6-(2-(9-(4-((1S,3R)-2-(2,2-difluoroethyl)-6-hydroxy-3-methyl-1,2,3,4-tetrahydroisoquinolin-1-yl)-3,5-difluorophenyl)-3,9-diazaspiro[5.5]undecan-3-yl)-2-oxoethyl)-2-(2,6-dioxopiperidin-3-yl)-6,7-dihydropyrrolo[3,4-f]isoindole-1,3(2H,5H)-dione] | < 10 nM
C[C@@H]1Cc2cc(O)ccc2C(c2ccc(N3CCC(C(=O)N4CCC(N5Cc6cc7c(cc6C5)C(=O)N(C5CCC(=O)NC5=O)C7=O)CC4)CC3)cc2)N1CC(F)F (stereo partly drawn) [E 321, 6-(1-(1-(4-((3R)-2-(2,2-difluoroethyl)-6-hydroxy-3-methyl-1,2,3,4-tetrahydroisoquinolin-1-yl)phenyl)piperidine-4-carbonyl)piperidin-4-yl)-2-(2,6-dioxopiperidin-3-yl)-6,7-dihydropyrrolo[3,4-f]isoindole-1,3(2H,5H)-dione] | < 10 nM
C[C@@H]1Cc2c([nH]c3ccccc23)[C@@H](c2c(F)cc(-c3ccc(C(=O)N4CCC(N5Cc6cc7c(cc6C5)C(=O)N(C5CCC(=O)NC5=O)C7=O)CC4)nc3)cc2F)N1CC(F)F (stereo partly drawn) [E 325, 6-(1-(5-(4-((1R,3R)-2-(2,2-difluoroethyl)-3-methyl-2,3,4,9-tetrahydro-1H-pyrido[3,4-b]indol-1-yl)-3,5-difluorophenyl)picolinoyl)piperidin-4-yl)-2-(2,6-dioxopiperidin-3-yl)-6,7-dihydropyrrolo[3,4-f]isoindole-1,3(2H,5H)-dione] | 10 to 100 nM

Second part, the compound after the results:

DC50 | Compound
10 to 100 nM | C[C@@H]1Cc2c([nH]c3ccccc23)[C@@H](c2ccc(C3CCC(C(=O)N4CCC(N5Cc6cc7c(cc6C5)C(=O)N(C5CCC(=O)NC5=O)C7=O)CC4)CC3)cn2)N1CC(F)F (stereo partly drawn) [E 313, 6-(1-(4-(6-((1S,3R)-2-(2,2-difluoroethyl)-3-methyl-2,3,4,9-tetrahydro-1H-pyrido[3,4-b]indol-1-yl)pyridin-3-yl)cyclohexane-1-carbonyl)piperidin-4-yl)-2-(2,6-dioxopiperidin-3-yl)-6,7-dihydropyrrolo[3,4-f]isoindole-1,3(2H,5H)-dione]
> 100 nM | C[C@@H]1Cc2c([nH]c3ccccc23)[C@@H](c2ccc(C3=CCC(C(=O)N4CCC(N5Cc6cc7c(cc6C5)C(=O)N(C5CCC(=O)NC5=O)C7=O)CC4)CC3)nc2)N1CC(F)F (stereo partly drawn) [E 314, 6-(1-(4-(5-((1R,3R)-2-(2,2-difluoroethyl)-3-methyl-2,3,4,9-tetrahydro-1H-pyrido[3,4-b]indol-1-yl)pyridin-2-yl)cyclohex-3-ene-1-carbonyl)piperidin-4-yl)-2-(2,6-dioxopiperidin-3-yl)-6,7-dihydropyrrolo[3,4-f]isoindole-1,3(2H,5H)-dione]
> 100 nM | C[C@@H]1Cc2c([nH]c3ccccc23)[C@@H](c2ccc(C3=CCC(C(=O)N4CCC(N5Cc6cc7c(cc6C5)C(=O)N(C5CCC(=O)NC5=O)C7=O)CC4)CC3)cc2)N1CC(F)F (stereo partly drawn) [E 316, 6-(1-(4′-((1R,3R)-2-(2,2-difluoroethyl)-3-methyl-2,3,4,9-tetrahydro-1H-pyrido[3,4-b]indol-1-yl)-2,3,4,5-tetrahydro-[1,1′-biphenyl]-4-carbonyl)piperidin-4-yl)-2-(2,6-dioxopiperidin-3-yl)-6,7-dihydropyrrolo[3,4-f]isoindole-1,3(2H,5H)-dione]
10 to 100 nM | C[C@@H]1Cc2cc(O)ccc2[C@@H](c2ccc(C3CCC(C(=O)N4CCC(N5Cc6cc7c(cc6C5)C(=O)N(C5CCC(=O)NC5=O)C7=O)CC4)CC3)cc2F)N1CC(F)F (stereo partly drawn) [E 317, 6-(1-(4-(4-((1S,3R)-2-(2,2-difluoroethyl)-6-hydroxy-3-methyl-1,2,3,4-tetrahydroisoquinolin-1-yl)-3-fluorophenyl)cyclohexane-1-carbonyl)piperidin-4-yl)-2-(2,6-dioxopiperidin-3-yl)-6,7-dihydropyrrolo[3,4-f]isoindole-1,3(2H,5H)-dione]
> 100 nM | C[C@@H]1Cc2c([nH]c3ccccc23)[C@@H](c2ccc(C3CCC(C(=O)N4CCC(N5Cc6cc7c(cc6C5)C(=O)N(C5CCC(=O)NC5=O)C7=O)CC4)CC3)nc2)N1CC(F)F (stereo partly drawn) [E 319, 6-(1-(4-(5-((1R,3R)-2-(2,2-difluoroethyl)-3-methyl-2,3,4,9-tetrahydro-1H-pyrido[3,4-b]indol-1-yl)pyridin-2-yl)cyclohexane-1-carbonyl)piperidin-4-yl)-2-(2,6-dioxopiperidin-3-yl)-6,7-dihydropyrrolo[3,4-f]isoindole-1,3(2H,5H)-dione]
> 100 nM | C[C@@H]1Cc2cc(O)ccc2C(c2ccc(N3CCC(C(=O)N4CCC(N5Cc6cc7c(cc6C5)C(=O)N(C5CCC(=O)NC5=O)C7=O)CC4)CC3)cn2)N1CC(F)F (stereo partly drawn) [E 322, 6-(1-(1-(6-((3R)-2-(2,2-difluoroethyl)-6-hydroxy-3-methyl-1,2,3,4-tetrahydroisoquinolin-1-yl)pyridin-3-yl)piperidine-4-carbonyl)piperidin-4-yl)-2-(2,6-dioxopiperidin-3-yl)-6,7-dihydropyrrolo[3,4-f]isoindole-1,3(2H,5H)-dione]
< 10 nM | C[C@@H]1Cc2cc(O)ccc2[C@@H](c2ccc(N3CCC(C(=O)N4CCC(N5Cc6cc7c(cc6C5)C(=O)N(C5CCC(=O)NC5=O)C7=O)CC4)CC3)cc2F)N1CC(F)F (stereo partly drawn) [E 323, 6-(1-(1-(4-((1S,3R)-2-(2,2-difluoroethyl)-6-hydroxy-3-methyl-1,2,3,4-tetrahydroisoquinolin-1-yl)-3-fluorophenyl)piperidine-4-carbonyl)piperidin-4-yl)-2-(2,6-dioxopiperidin-3-yl)-6,7-dihydropyrrolo[3,4-f]isoindole-1,3(2H,5H)-dione]
> 100 nM | CN(C1CCC(N2Cc3cc4c(cc3C2)C(=O)N(C2CCC(=O)NC2=O)C4=O)CC1)C1CCN(c2ccc([C@@H]3c4ccc(O)cc4CC[C@@H]3c3ccccc3)cc2)CC1 (stereo partly drawn) [E 324, 2-(2,6-dioxopiperidin-3-yl)-6-(4-((1-(4-((1R,2S)-6-hydroxy-2-phenyl-1,2,3,4-tetrahydronaphthalen-1-yl)phenyl)piperidin-4-yl)(methyl)amino)cyclohexyl)-6,7-dihydropyrrolo[3,4-f]isoindole-1,3(2H,5H)-dione]
